Assays:
VWD type 1 patients = test: In vivo therapy control (DDAVP); design: species or system human; conditions: three VWD type 1 patients; before, 30 min and 180 min after DDAVP
Description: Therapy in VWD may be necessary to alleviate a bleeding episode or to prevent bleeding episode. Most individuals with type 1 VWD generally are managed effectively using DDAVP (Desmopressin acetate), which acts to release endogenous stored VWF. It is usual to conduct a trial of DDAVP and then monitor the response by subsequent blood sampling and testing. […] The method is a simple and rapid tool to discriminate responders from nonresponders to DDAVP. The advantage of this method is the close to immediate test time obtained. The result is available very soon after blood sampling. In contrast the VWF:CB result is generally obtained some days after blood sampling. The values for the amplitude ratio, the VWF:Ag and VWF-RCo are shown in figure 7 for three time points (before, 30 min after and 180 min after administration of DDAVP).

[1] = system: citrate-stabilized blood (platelets and VWF); test: TEG maximal amplitude with versus without ristocetin preincubation; assay type: cell-based, human; conditions: for maximal amplitude after ristocetin preincubation relative to maximal amplitude without preincubation: 25 μL of 15 mg/mL ristocetin per 500 μL, 10 min
Method: If TEG is the assay to determine the viscoelastic change the platelet activation in response to the activator of platelet aggregation for example ristocetin can by way of non limiting example be determined from the maximum amplitudes in the control without added platelet activator (MA) and the sample with the added platelet activator Ristocetin (MARistocetin): which can then be expressed as the ratio (MARistocetin/MA)*100. The percentage change is determined to assess individual subject's responses, thus providing an indication of relative response to a certain dose of ristocetin.
Analyser and the reagents were from Haemoscope Corporation. 1.3 mL of blood was collected in 3.18% trisodium citrate (1:9 anticoagulant to blood). One millilitre of citrate-stabilized blood was transferred to a vial containing a standardized kaolin reagent and mixed by inversion. The mixture was mixed well and divided into two 500 μL aliquots. 25 μL ristocetin at a concentration of 15 mg mL^−1 was added to one part of the activated blood aliquots and both samples were incubated on a mixer for 10 min. 360 μL of both aliquots were filled to TEG assay cups and 20 μL of 0.2 M CaCl2 were added. The TEG tracings were allowed to run as least until the maximal amplitude was reached.
According to the procedure in example 2 blood samples from healthy patients and patients with from VWD were tested. All VWD samples derived from patients diagnosed as having VWD using standard criteria. In addition to VWD plasma, a number of normal samples were also collected and used for comparative studies. The platelet activation in response to ristocetin is determined from the maximum amplitudes in the control (MA) and ristocetin activated trace (MARistocetin): MARicocetin/MA*100. The percentage change was calculated to assess individual subject's responses, thus providing an indication of relative response to a certain dose of ristocetin (0.71 mg/ml and 1,05 mg/ml final concentration). The Kaolin induced sample without adding ristocetin acted as the control measurement. […] Almost all platelets are deactivated and no more platelet contribution to the clot strength is detectable.

[2] = system: citrate-stabilized blood from a healthy patient; test: TEG (Rotem) of kaolin-activated citrated blood incubated with increasing amounts of ristocetin; assay type: cell-based, human; conditions: 10 min incubation, increasing final ristocetin concentration (up to 1.05 mg/ml)
Method: Citrate-stabilized blood from a healthy patient was transferred to a vial containing a standardized kaolin reagent and mixed by inversion The kaolin reagent was purchased from Haemoscope Corporation. The mixture was mixed well and divided into two 500 μL aliquots. Different amounts of ristocetin at a concentration of 15 mg mL^−1 was added to one part of the activated blood aliquots and both samples were incubated on a mixer for 10 min. 300 μL of both aliquots were filled to TEG assay cups and 20 μL of 0.2 M CaCl2 were added. The TEG tracings were allowed to run as least until the maximal amplitude was reached using a Rotem Analyser. […] Dependent of the final ristocetin concentration a decrease of the maximal amplitude and an increase in the clotting time were observed.

Compound	TEG ratio (maximal amplitude with ristocetin/without ristocetin)*100 (VWD type 1 patients)	VWF:Ag (VWD type 1 patients)	ristocetin cofactor activity (VWD type 1 patients)	maximal amplitude after ristocetin preincubation relative to maximal amplitude without preincubation ([1]; blood from a VWD type 1 patient)	maximal amplitude after ristocetin preincubation relative to maximal amplitude without preincubation ([1]; blood from a VWD type 3 patient) [%]	maximal amplitude after ristocetin preincubation relative to maximal amplitude without preincubation ([1]; normal blood)	clot strength after ristocetin incubation ([1]; patients with VWD, 0.71 mg/ml and 1,05 mg/ml final concentration)	maximum amplitude after incubation with ristocetin ([1]; patients without VWD, 0.71 mg/ml and 1,05 mg/ml final concentration)	clotting time [2]	maximal amplitude [2]
NC(=O)CC[C@@H]1NC(=O)[C@H](Cc2ccccc2)NC(=O)[C@H](Cc2ccc(O)cc2)NC(=O)CCSSC[C@@H](C(=O)N2CCC[C@H]2C(=O)N[C@H](CCCN=C(N)N)C(=O)NCC(N)=O)NC(=O)[C@H](CC(N)=O)NC1=O [DDAVP, Desmopressin acetate]	normalize	increase	increase							
ristocetin				about 75%	~100	about 20%	not or only slightly modified	significant decrease	increase	decrease
